Experimental data: the supplement of paper PMC10307832

Legend:
Experiment in all cases: relative viability (nuclei count vs DMSO), 5 days (fraction); higher = more cells survive
201T = test system: 201T
Procedure, shortened: (§1)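 Medians of duplicate plates are given as relative viability. That measure is the nuclei count in treated wells divided by the count in vehicle wells. Counts were taken on 4× images of lung cancer cell lines in 1536-well plates, 5 days after pin-tool dosing the day after seeding with one drug alone or a fixed anchor-drug dose plus five library-drug doses (not always all listed) in √10 steps.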

BEN = test system: BEN
Procedure, shortened: as §1

COR-L 105 = test system: COR-L 105
Procedure, shortened: as §1

EKVX = test system: EKVX
Procedure, shortened: as §1

EPLC-272H = test system: EPLC-272H
Procedure, shortened: as §1

H3255 = test system: H3255
Procedure, shortened: as §1

HCC-44 = test system: HCC-44
Procedure, shortened: as §1

HCC-827 = test system: HCC-827
Procedure, shortened: as §1

LCLC-97TM1 = test system: LCLC-97TM1
Procedure, shortened: as §1

LOU-NH91 = test system: LOU-NH91
Procedure, shortened: as §1

LU99A = test system: LU99A
Procedure, shortened: as §1

NCI-H1437 = test system: NCI-H1437
Procedure, shortened: as §1

NCI-H1666 = test system: NCI-H1666
Procedure, shortened: as §1

NCI-H1975 = test system: NCI-H1975
Procedure, shortened: as §1

NCI-H2085 = test system: NCI-H2085
Procedure, shortened: as §1

NCI-H2087 = test system: NCI-H2087
Procedure, shortened: as §1

NCI-H2170 = test system: NCI-H2170
Procedure, shortened: as §1

NCI-H2342 = test system: NCI-H2342
Procedure, shortened: as §1

NCI-H647 = test system: NCI-H647
Procedure, shortened: as §1

NCI-H650 = test system: NCI-H650
Procedure, shortened: as §1

PC-3 [JPC-3] = test system: PC-3 [JPC-3]
Procedure, shortened: as §1

SW 1573 = test system: SW 1573
Procedure, shortened: as §1

**Q.** With `COc1nc(C)cnc1NS(=O)(=O)c1cccnc1-c1ccc(-c2nnco2)cc1` [Zibotentan] + O=C(c1cc(Cc2n[nH]c(=O)c3ccccc23)ccc1F)N1CCN(C(=O)C2CC2)CC1 [Olaparib] (partner 8 µM) as the compound, how does the relative viability (201T; first compound 0.08 µM) read?
**A.** 0.819

**Q.** What about the relative viability (201T; first compound 0.253 µM) of the same compound?
**A.** 0.828

**Q.** What about the relative viability (201T; first compound 0.8 µM) of the same compound?
**A.** 0.846

**Q.** And the relative viability (201T; first compound 2.53 µM)?
**A.** 0.876

**Q.** What about the relative viability (BEN; first compound 0.08 µM) of the same compound?
**A.** 1.15

**Q.** And the relative viability (BEN; first compound 0.253 µM)?
**A.** 1.09

**Q.** And the relative viability (BEN; first compound 0.8 µM)?
**A.** 1.09

**Q.** And the relative viability (BEN; first compound 2.53 µM)?
**A.** 0.958

**Q.** And the relative viability (COR-L 105; first compound 0.08 µM)?
**A.** 0.68

**Q.** And the relative viability (COR-L 105; first compound 0.253 µM)?
**A.** 0.605

**Q.** And the relative viability (COR-L 105; first compound 0.8 µM)?
**A.** 0.721

**Q.** What about the relative viability (COR-L 105; first compound 2.53 µM) of the same compound?
**A.** 0.784

**Q.** And the relative viability (EKVX; first compound 0.08 µM)?
**A.** 0.909

**Q.** What about the relative viability (EKVX; first compound 0.253 µM) of the same compound?
**A.** 0.733

**Q.** What about the relative viability (EKVX; first compound 0.8 µM) of the same compound?
**A.** 0.799

**Q.** And the relative viability (EKVX; first compound 2.53 µM)?
**A.** 0.917

**Q.** And the relative viability (EPLC-272H; first compound 0.253 µM)?
**A.** 0.732

**Q.** What about the relative viability (EPLC-272H; first compound 0.8 µM) of the same compound?
**A.** 0.991

**Q.** And the relative viability (EPLC-272H; first compound 2.53 µM)?
**A.** 0.754

**Q.** What about the relative viability (H3255; first compound 0.08 µM) of the same compound?
**A.** 0.552

**Q.** What about the relative viability (H3255; first compound 0.253 µM) of the same compound?
**A.** 0.529

**Q.** And the relative viability (H3255; first compound 0.8 µM)?
**A.** 0.588

**Q.** And the relative viability (H3255; first compound 2.53 µM)?
**A.** 0.56

**Q.** What about the relative viability (HCC-44; first compound 0.08 µM) of the same compound?
**A.** 0.958

**Q.** What about the relative viability (HCC-44; first compound 0.253 µM) of the same compound?
**A.** 0.965

**Q.** What about the relative viability (HCC-44; first compound 0.8 µM) of the same compound?
**A.** 0.98

**Q.** And the relative viability (HCC-44; first compound 2.53 µM)?
**A.** 0.957

**Q.** And the relative viability (HCC-827; first compound 0.08 µM)?
**A.** 0.64

**Q.** And the relative viability (HCC-827; first compound 0.253 µM)?
**A.** 0.647

**Q.** What about the relative viability (HCC-827; first compound 0.8 µM) of the same compound?
**A.** 0.667

**Q.** What about the relative viability (HCC-827; first compound 2.53 µM) of the same compound?
**A.** 0.669

**Q.** What about the relative viability (LCLC-97TM1; first compound 0.08 µM) of the same compound?
**A.** 0.383

**Q.** And the relative viability (LCLC-97TM1; first compound 0.253 µM)?
**A.** 0.393

**Q.** What about the relative viability (LCLC-97TM1; first compound 0.8 µM) of the same compound?
**A.** 0.433

**Q.** What about the relative viability (LCLC-97TM1; first compound 2.53 µM) of the same compound?
**A.** 0.385

**Q.** What about the relative viability (LOU-NH91; first compound 0.08 µM) of the same compound?
**A.** 0.908

**Q.** And the relative viability (LOU-NH91; first compound 0.253 µM)?
**A.** 0.854

**Q.** And the relative viability (LOU-NH91; first compound 0.8 µM)?
**A.** 0.999

**Q.** And the relative viability (LOU-NH91; first compound 2.53 µM)?
**A.** 0.947

**Q.** And the relative viability (LU99A; first compound 0.08 µM)?
**A.** 0.269

**Q.** What about the relative viability (LU99A; first compound 0.253 µM) of the same compound?
**A.** 0.259

**Q.** And the relative viability (LU99A; first compound 0.8 µM)?
**A.** 0.181

**Q.** What about the relative viability (LU99A; first compound 2.53 µM) of the same compound?
**A.** 0.255

**Q.** What about the relative viability (NCI-H1437; first compound 0.08 µM) of the same compound?
**A.** 0.64

**Q.** And the relative viability (NCI-H1437; first compound 0.253 µM)?
**A.** 0.629

**Q.** And the relative viability (NCI-H1437; first compound 0.8 µM)?
**A.** 0.617

**Q.** What about the relative viability (NCI-H1437; first compound 2.53 µM) of the same compound?
**A.** 0.621

**Q.** And the relative viability (NCI-H1666; first compound 0.08 µM)?
**A.** 0.753

**Q.** And the relative viability (NCI-H1666; first compound 0.253 µM)?
**A.** 0.726

**Q.** What about the relative viability (NCI-H1666; first compound 0.8 µM) of the same compound?
**A.** 0.765

**Q.** What about the relative viability (NCI-H1666; first compound 2.53 µM) of the same compound?
**A.** 0.728

**Q.** And the relative viability (NCI-H1975; first compound 0.08 µM)?
**A.** 0.855

**Q.** And the relative viability (NCI-H1975; first compound 0.253 µM)?
**A.** 0.742

**Q.** And the relative viability (NCI-H1975; first compound 0.8 µM)?
**A.** 0.749

**Q.** What about the relative viability (NCI-H1975; first compound 2.53 µM) of the same compound?
**A.** 0.765

**Q.** And the relative viability (NCI-H2085; first compound 0.08 µM)?
**A.** 0.742

**Q.** And the relative viability (NCI-H2085; first compound 0.253 µM)?
**A.** 0.734

**Q.** And the relative viability (NCI-H2085; first compound 0.8 µM)?
**A.** 0.856

**Q.** What about the relative viability (NCI-H2085; first compound 2.53 µM) of the same compound?
**A.** 0.801

**Q.** And the relative viability (NCI-H2087; first compound 0.08 µM)?
**A.** 0.658

**Q.** And the relative viability (NCI-H2087; first compound 0.253 µM)?
**A.** 0.668

**Q.** And the relative viability (NCI-H2087; first compound 0.8 µM)?
**A.** 0.63

**Q.** What about the relative viability (NCI-H2087; first compound 2.53 µM) of the same compound?
**A.** 0.48

**Q.** What about the relative viability (NCI-H2170; first compound 0.08 µM) of the same compound?
**A.** 0.571

**Q.** And the relative viability (NCI-H2170; first compound 0.253 µM)?
**A.** 0.648

**Q.** And the relative viability (NCI-H2170; first compound 0.8 µM)?
**A.** 0.522

**Q.** And the relative viability (NCI-H2170; first compound 2.53 µM)?
**A.** 0.568

**Q.** And the relative viability (NCI-H2342; first compound 0.08 µM)?
**A.** 0.407

**Q.** What about the relative viability (NCI-H2342; first compound 0.253 µM) of the same compound?
**A.** 0.44

**Q.** What about the relative viability (NCI-H2342; first compound 0.8 µM) of the same compound?
**A.** 0.504

**Q.** And the relative viability (NCI-H2342; first compound 2.53 µM)?
**A.** 0.389

**Q.** And the relative viability (NCI-H647; first compound 0.08 µM)?
**A.** 0.592

**Q.** What about the relative viability (NCI-H647; first compound 0.253 µM) of the same compound?
**A.** 0.421

**Q.** What about the relative viability (NCI-H647; first compound 0.8 µM) of the same compound?
**A.** 0.665

**Q.** And the relative viability (NCI-H647; first compound 2.53 µM)?
**A.** 0.494

**Q.** What about the relative viability (NCI-H650; first compound 0.08 µM) of the same compound?
**A.** 0.413

**Q.** And the relative viability (NCI-H650; first compound 0.253 µM)?
**A.** 0.395

**Q.** What about the relative viability (NCI-H650; first compound 0.8 µM) of the same compound?
**A.** 0.52

**Q.** And the relative viability (NCI-H650; first compound 2.53 µM)?
**A.** 0.443

**Q.** And the relative viability (PC-3 [JPC-3]; first compound 0.08 µM)?
**A.** 1.1

**Q.** And the relative viability (PC-3 [JPC-3]; first compound 0.253 µM)?
**A.** 1.09

**Q.** What about the relative viability (PC-3 [JPC-3]; first compound 0.8 µM) of the same compound?
**A.** 1.21

**Q.** And the relative viability (PC-3 [JPC-3]; first compound 2.53 µM)?
**A.** 1.14

**Q.** What about the relative viability (SW 1573; first compound 0.08 µM) of the same compound?
**A.** 0.557

**Q.** What about the relative viability (SW 1573; first compound 0.8 µM) of the same compound?
**A.** 0.544

**Q.** What about the relative viability (SW 1573; first compound 2.53 µM) of the same compound?
**A.** 0.459
